Reference: ChEMBL document CHEMBL1201862, “PubChem BioAssay data set” (2004)
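Protocol summary: plate cells (96-well), add compound at 5 concentrations, incubate 48 h, interpolate endpoints linearly. Here, GI50 denotes the concentration required for 50% inhibition of growth.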 Active and inactive are the calls of the source. No stated cut-off is given here; in the data, active = GI50 up to about 1.1 µM and inactive = higher.

Assays:
Experiment in all cases: inhibition of tumour cell growth, NCI panel, 48 h
[1] = test system: 786-0
[2] = test system: A498
[3] = test system: A549
[4] = test system: ACHN
[5] = test system: CAKI-1
[6] = test system: COLO 205
[7] = test system: DLD-1
[8] = test system: DMS-114
[9] = test system: DMS-273
[10] = test system: EKVX
[11] = test system: HCC 2998
[12] = test system: HCT-116
[13] = test system: HL-60
[14] = test system: HOP-18
[15] = test system: HOP-62
[16] = test system: HOP-92
[17] = test system: HT-29
[18] = test system: IGROV-1
[19] = test system: K562
[20] = test system: KM-20L2
[21] = test system: KM12
[22] = test system: LOX IMVI
[23] = test system: LXFL 529
[24] = test system: M14
[25] = test system: M19-MEL
[26] = test system: MOLT-4
[27] = test system: Malme-3M
[28] = test system: NCI-H226
[29] = test system: NCI-H23
[30] = test system: NCI-H460
[31] = test system: NCI-H522
[32] = test system: OVCAR-3
[33] = test system: OVCAR-4
[34] = test system: OVCAR-5
[35] = test system: OVCAR-8
[36] = test system: RPMI-8226
[37] = test system: RXF 393
[38] = test system: RXF 631
[39] = test system: SF-268
[40] = test system: SF-295
[41] = test system: SF-539
[42] = test system: SK-MEL-28
[43] = test system: SK-MEL-2
[44] = test system: SK-MEL-5
[45] = test system: SK-OV-3
[46] = test system: SN12C
[47] = test system: SNB-19
[48] = test system: SNB-75
[49] = test system: SNB-78
[50] = test system: SR
[51] = test system: SW-620
[52] = test system: TK-10
[53] = test system: U-251
[54] = test system: UACC-257
[55] = test system: UACC-62
[56] = test system: UO-31
[57] = test system: XF498
[58] = test system: CCRF-CEM
[59] = test system: HCT-15

CCN(CC)c1ccc2c(c1)Nc1cc(=C(C#N)C#N)c3ccccc3c1=N2
GI50 [1]: > 100 µM (inactive) | GI50 [2]: > 100 µM (inactive) | GI50 [3]: > 100 µM (inactive) | GI50 [4]: > 100 µM (inactive) | GI50 [5]: > 100 µM (inactive) | GI50 [6]: > 100 µM (inactive) | GI50 [7]: > 100 µM (inactive) | GI50 [8]: > 100 µM (inactive) | GI50 [9]: > 100 µM (inactive) | GI50 [10]: > 100 µM (inactive) | GI50 [11]: > 100 µM (inactive) | GI50 [12]: 82.6 µM (inactive) | GI50 [13]: > 100 µM (inactive) | GI50 [14]: > 100 µM (inactive) | GI50 [15]: > 100 µM (inactive) | GI50 [16]: > 100 µM (inactive) | GI50 [17]: > 100 µM (inactive) | GI50 [18]: > 100 µM (inactive) | GI50 [19]: > 100 µM (inactive) | GI50 [20]: > 100 µM (inactive) | GI50 [21]: > 100 µM (inactive) | GI50 [22]: 53.5 µM (inactive) | GI50 [23]: > 100 µM (inactive) | GI50 [24]: > 100 µM (inactive) | GI50 [25]: > 100 µM (inactive) | GI50 [26]: > 100 µM (inactive) | GI50 [27]: > 100 µM (inactive) | GI50 [28]: > 100 µM (inactive) | GI50 [29]: > 100 µM (inactive) | GI50 [30]: 95.3 µM (inactive) | GI50 [31]: > 100 µM (inactive) | GI50 [32]: > 100 µM (inactive) | GI50 [33]: > 100 µM (inactive) | GI50 [34]: > 100 µM (inactive) | GI50 [35]: 61 µM (inactive) | GI50 [36]: > 100 µM (inactive) | GI50 [37]: > 100 µM (inactive) | GI50 [38]: > 100 µM (inactive) | GI50 [39]: > 100 µM (inactive) | GI50 [40]: > 100 µM (inactive) | GI50 [41]: > 100 µM (inactive) | GI50 [42]: > 100 µM (inactive) | GI50 [43]: > 100 µM (inactive) | GI50 [44]: > 100 µM (inactive) | GI50 [45]: > 100 µM (inactive) | GI50 [46]: > 100 µM (inactive) | GI50 [47]: > 100 µM (inactive) | GI50 [48]: > 100 µM (inactive) | GI50 [49]: > 100 µM (inactive) | GI50 [50]: > 100 µM (inactive) | GI50 [51]: 59 µM (inactive) | GI50 [52]: > 100 µM (inactive) | GI50 [53]: > 100 µM (inactive) | GI50 [54]: > 100 µM (inactive) | GI50 [55]: > 100 µM (inactive) | GI50 [56]: > 100 µM (inactive) | GI50 [57]: > 100 µM (inactive)

CC(=O)c1c(C)[n+]([O-])c2cc(C)c(C)cc2[n+]1[O-]
GI50 [1]: > 100 µM (inactive) | GI50 [2]: > 100 µM (inactive) | GI50 [3]: > 100 µM (inactive) | GI50 [4]: > 100 µM (inactive) | GI50 [5]: > 100 µM (inactive) | GI50 [58]: > 100 µM (inactive) | GI50 [6]: > 100 µM (inactive) | GI50 [7]: > 100 µM (inactive) | GI50 [8]: > 100 µM (inactive) | GI50 [9]: > 100 µM (inactive) | GI50 [10]: > 100 µM (inactive) | GI50 [11]: > 100 µM (inactive) | GI50 [59]: > 100 µM | GI50 [13]: > 100 µM (inactive) | GI50 [14]: > 100 µM (inactive) | GI50 [15]: > 100 µM (inactive) | GI50 [17]: 65.8 µM (inactive) | GI50 [18]: > 100 µM (inactive) | GI50 [19]: > 100 µM (inactive) | GI50 [20]: > 100 µM (inactive) | GI50 [21]: > 100 µM (inactive) | GI50 [22]: > 100 µM (inactive) | GI50 [23]: > 100 µM (inactive) | GI50 [24]: > 100 µM (inactive) | GI50 [25]: > 100 µM (inactive) | GI50 [26]: > 100 µM (inactive) | GI50 [27]: > 100 µM (inactive) | GI50 [28]: > 100 µM (inactive) | GI50 [29]: > 100 µM (inactive) | GI50 [30]: > 100 µM (inactive) | GI50 [31]: > 100 µM (inactive) | GI50 [32]: > 100 µM (inactive) | GI50 [33]: > 100 µM (inactive) | GI50 [34]: > 100 µM (inactive) | GI50 [35]: > 100 µM (inactive) | GI50 [36]: > 100 µM (inactive) | GI50 [38]: > 100 µM (inactive) | GI50 [39]: > 100 µM (inactive) | GI50 [40]: > 100 µM (inactive) | GI50 [41]: > 100 µM (inactive) | GI50 [42]: > 100 µM (inactive) | GI50 [43]: > 100 µM (inactive) | GI50 [44]: > 100 µM (inactive) | GI50 [45]: > 100 µM (inactive) | GI50 [46]: > 100 µM (inactive) | GI50 [47]: > 100 µM (inactive) | GI50 [48]: > 100 µM (inactive) | GI50 [49]: > 100 µM (inactive) | GI50 [51]: > 100 µM (inactive) | GI50 [52]: > 100 µM (inactive) | GI50 [53]: > 100 µM (inactive) | GI50 [54]: > 100 µM (inactive) | GI50 [55]: > 100 µM (inactive) | GI50 [56]: > 100 µM (inactive) | GI50 [57]: > 100 µM (inactive)

CC(=O)OCCOCNC(=S)N/N=C/c1ccc([N+](=O)[O-])o1
GI50 [1]: > 100 µM (inactive) | GI50 [2]: > 100 µM (inactive) | GI50 [3]: 63.5 µM (inactive) | GI50 [4]: 60.5 µM (inactive) | GI50 [58]: 23 µM (inactive) | GI50 [6]: 15 µM (inactive) | GI50 [7]: 53.1 µM (inactive) | GI50 [8]: 17.1 µM (inactive) | GI50 [9]: 37.9 µM (inactive) | GI50 [10]: > 100 µM (inactive) | GI50 [11]: 40.7 µM (inactive) | GI50 [12]: 40 µM (inactive) | GI50 [59]: 52.6 µM | GI50 [13]: 11.6 µM (inactive) | GI50 [14]: > 100 µM (inactive) | GI50 [15]: > 100 µM (inactive) | GI50 [17]: 30.3 µM (inactive) | GI50 [18]: > 100 µM (inactive) | GI50 [19]: 37.1 µM (inactive) | GI50 [20]: 26.4 µM (inactive) | GI50 [21]: 57 µM (inactive) | GI50 [22]: 31.6 µM (inactive) | GI50 [23]: 77.6 µM (inactive) | GI50 [24]: 36.6 µM (inactive) | GI50 [25]: 15.7 µM (inactive) | GI50 [27]: 94.8 µM (inactive) | GI50 [28]: 98.4 µM (inactive) | GI50 [29]: 26.7 µM (inactive) | GI50 [30]: 28.7 µM (inactive) | GI50 [31]: 64.4 µM (inactive) | GI50 [32]: 33.6 µM (inactive) | GI50 [33]: > 100 µM (inactive) | GI50 [34]: > 100 µM (inactive) | GI50 [35]: 77.3 µM (inactive) | GI50 [37]: > 100 µM (inactive) | GI50 [38]: 58.7 µM (inactive) | GI50 [39]: 29.5 µM (inactive) | GI50 [40]: 40.6 µM (inactive) | GI50 [41]: 43.9 µM (inactive) | GI50 [42]: 98.4 µM (inactive) | GI50 [43]: 44.1 µM (inactive) | GI50 [44]: 28.7 µM (inactive) | GI50 [45]: > 100 µM (inactive) | GI50 [46]: 74.5 µM (inactive) | GI50 [47]: > 100 µM (inactive) | GI50 [48]: > 100 µM (inactive) | GI50 [49]: > 100 µM (inactive) | GI50 [51]: 34.5 µM (inactive) | GI50 [52]: > 100 µM (inactive) | GI50 [53]: 83.9 µM (inactive) | GI50 [54]: 34.4 µM (inactive) | GI50 [55]: 18.5 µM (inactive) | GI50 [56]: > 100 µM (inactive) | GI50 [57]: > 100 µM (inactive)
